# Reference: US9168248B2, “Spiro compounds useful as inhibitors of stearoyl-coenzyme A delta-9 desaturase” (Merck Canada Inc., priority 2009, dated 2015)
# Target: human SCD1 (Homo sapiens (Human), UniProt O00767)
# Assay: SCD enzyme activity assay (conversion of radiolabeled stearoyl-CoA to oleoyl-CoA), human SCD1
# Format: biochemical
# Settings: human SCD1 from baculovirus/Sf9 expression system, reconstituted with cytochrome B5 and cytochrome B5 reductase; read-out: IC50 hSCD-1
# Description: I. SCD Enzyme Activity Assay:
# The potency of compounds of formula I against the stearoyl-CoA desaturase was determined by measuring the conversion of radiolabeled stearoyl-CoA to oleoyl-CoA using rat liver microsome or human SCD1 following previously published procedures with some modifications (Joshi, et al., J. Lipid Res., 18: 32-36 (1977); Talamo, et al., Anal. Biochem, 29: 300-304 (1969)). Liver microsome was prepared from male Wistar or Sprague Dawley rats on a high carbohydrate diet for 3 days (LabDiet #5803, Purina). The livers were homogenized (1:10 w/v) in a buffer containing 250 mM sucrose, 1 mM EDTA, 5 mM DTT and 50 mM Tris-HCl (pH 7.5). After a 100,000×g centrifugation for 60 min, the liver microsome pellet was suspended in a buffer containing 100 mM sodium phosphate, 20% glycerol, 2 mM DTT, and stored at −78° C. Human SCD1 desaturase system was reconstituted using human SCD1 from a baculovirus/Sf9 expression system, cytochrome B5 and cytochrome B5 reductase. Typically, test compound in 2 μL DMSO was incubated for […] at room temperature with 180 μL of the SCD enzyme in a buffer containing 100 mM Tris-HCl (pH 7.5), ATP (5 mM), Coenzyme-A (0.1 mM), Triton X-100 (0.5 mM) and NADH (2 mM). The reaction was initiated by the addition of 20 μL of [^3H]-stearoyl-CoA (final concentration=2 μM, radioactivity concentration=1 μCi/mL). After 10 mM, the reaction mixture (80 μL) was mixed with a calcium chloride/charcoal aqueous suspension (100 μL charcoal (10% w/v) plus 25 μL CaCl2 (2N). After centrifugation to precipitate the radioactive fatty acid species, tritiated water released from 9,10-[^3H]-stearoyl-CoA by the SCD enzyme was quantified on a scintillation counter.
# Sequence of human SCD1 (O00767 whole entry): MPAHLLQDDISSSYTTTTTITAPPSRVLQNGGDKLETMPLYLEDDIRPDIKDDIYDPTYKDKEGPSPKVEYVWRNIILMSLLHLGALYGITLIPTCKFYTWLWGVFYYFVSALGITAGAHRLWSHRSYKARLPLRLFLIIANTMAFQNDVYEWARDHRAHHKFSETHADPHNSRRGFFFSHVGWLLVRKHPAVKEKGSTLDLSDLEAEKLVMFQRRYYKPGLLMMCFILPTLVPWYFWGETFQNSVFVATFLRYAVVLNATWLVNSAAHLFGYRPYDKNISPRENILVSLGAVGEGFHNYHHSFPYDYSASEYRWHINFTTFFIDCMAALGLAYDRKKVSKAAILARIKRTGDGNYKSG
row,Molecule,IC50 [nM]
1,"O=C(O)Cn1nnc(-c2nnc(N3CCC4(CCc5c(OC(F)(F)F)cccc5O4)CC3)s2)n1 [Example 17, (5-{5-[5-(Trifluoromethoxy)-3,4-dihydro-1′H-spiro[chromene-2,4′-piperidin]-1′-yl]-1,3,4-thiadiazol-2-yl}-2H-tetrazol-2-yl)acetic acid]",1
2,"O=C(O)Cn1nnc(-c2cnc(N3CCC4(CCc5c(OC(F)(F)F)cccc5O4)CC3)s2)n1 [Example 18, (5-{2-[5-(Trifluoromethoxy)-3,4-dihydro-1′H-spiro[chromene-2,4′-piperidin]-1′-yl]-1,3-thiazol-5-yl}-2H-tetrazol-2-yl)acetic acid]",1
3,"Cc1cccc2c1CCC1(CCN(c3ncc(-c4nnn(CC(=O)O)n4)s3)CC1)O2 [Example 42, {5-[2-(5-Methyl-3,4-dihydro-1′H-spiro[chromene-2,4′-piperidin]-1′-yl)-1,3-thiazol-5-yl]-2H-tetrazol-2-yl}acetic acid]",1
4,"O=C(O)Cn1nnc(-c2nnc(N3CCC4(CCc5c(Cl)cccc5O4)CC3)s2)n1 [Example 1, {5-[5-(5-Chloro-3,4-dihydro-1′H-spiro[chromene-2,4′-piperidin]-1′-yl)-1,3,4-thiadiazol-2-yl]-2H-tetrazol-2-yl}acetic acid]",12
5,O=C(O)Cn1nnc(-c2cnc(N3CCC4(CC3)NC(=O)c3c(Cl)cccc3O4)s2)n1 [Example 54],62
6,"O=C(O)Cn1nnc(-c2cnc(N3CCC4(CCc5ccccc54)CC3)s2)n1 [Example 5, {5-[2-(2,3-Dihydro-1′H-spiro[indene-1,4′-piperidin]-1′-yl)-1,3-thiazol-5-yl]-2H-tetrazol-2-yl}acetic acid]",49
7,"O=C(O)Cn1nnc(-c2nnc(N3CCC4(CC3)Cc3ccccc3C(=O)O4)s2)n1 [Example 10, {5-[5-(1-Oxo-1,4-dihydro-1′H-spiro[isochromene-3,4′-piperidin]-1′-yl)-1,3,4-thiadiazol-2-yl]-2H-tetrazol-2-yl}acetic acid]",338
8,"O=C(O)Cn1nnc(-c2nnc(N3CCC4(CCc5c(O)cccc5O4)CC3)s2)n1 [Example 12, {5-[5-(5-Hydroxy-3,4-dihydro-1′H-spiro[chromene-2,4′-piperidin]-1′-yl)-1,3,4-thiadiazol-2-yl]-2H-tetrazol-2-yl}acetic acid]",366
9,"O=C(O)Cn1nnc(-c2nnc(N3CCC4(CC3)CC(=O)c3ccccc3O4)s2)n1 [Example 8, {5-[5-(4-Oxo-3,4-dihydro-1′H-spiro[chromene-2,4′-piperidin]-1′-yl)-1,3,4-thiadiazol-2-yl]-2H-tetrazol-2-yl}acetic acid]",708
10,"O=C(O)Cn1nnc(-c2cnc(N3CCC4(CCc5c(Cl)cccc5O4)CC3)s2)n1 [Example 3, {5-[2-(5-Chloro-3,4-dihydro-1′H-spiro[chromene-2,4′-piperidin]-1′-yl)-1,3-thiazol-5-yl]-2H-tetrazol-2-yl}acetic acid]",13
11,"{4-[5-(5-Chloro-3,4-dihydro-1′H-spiro[chromene-2,4′-piperidin]-1′-yl)-1,3,4-thiadiazol-2-yl]-1H-1,2,3-triazol-1-yl}acetic acid [Example 72]",3
12,"O=C(O)Cn1nnc(-c2cnc(N3CCC4(CCc5c(Br)cccc5O4)CC3)s2)n1 [Example 28, {5-[2-(5-Bromo-3,4-dihydro-1′H-spiro[chromene-2,4′-piperidin]-1′-yl)-1,3-thiazol-5-yl]-2H-tetrazol-2-yl}acetic acid]",1
13,"COc1cccc2c1CCC1(CCN(c3nnc(-c4nnn(CC(=O)O)n4)s3)CC1)O2 [Example 11, {5-[5-(5-Methoxy-3,4-dihydro-1′H-spiro[chromene-2,4′-piperidin]-1′-yl)-1,3,4-thiadiazol-2-yl]-2H-tetrazol-2-yl}acetic acid]",13
14,"O=C(O)Cn1nnc(-c2cc(N3CCC4(CCc5c(Br)cccc5O4)CC3)no2)n1 [Example 22, {5-[3-(5-Bromo-3,4-dihydro-1′H-spiro[chromene-2,4′-piperidin]-1′-yl)isoxazol-5-yl]-2H-tetrazol-2-yl}acetic acid]",1
15,"O=C(O)Cn1nnc(-c2cnc(N3CCC4(CC3)NC(=O)c3ccccc3O4)s2)n1 [Example 9, {5-[2-(4-Oxo-3,4-dihydro-1′H-spiro[1,3-benzoxazine-2,4′-piperidin]-1′-yl)-1,3-thiazol-5-yl]-2H-tetrazol-2-yl}acetic acid]",181
16,"O=C(O)Cn1nnc(-c2cnc(N3CCC4(CC3)CC(=O)c3ccccc3O4)s2)n1 [Example 4, {5-[2-(4-Oxo-3,4-dihydro-1′H-spiro[chromene-2,4′-piperidin]-1′-yl)-1,3-thiazol-5-yl]-2H-tetrazol-2-yl}acetic acid]",41
17,"O=C(O)Cn1nnc(-c2cc(N3CCC4(CCc5c(OC(F)(F)F)cccc5O4)CC3)no2)n1 [Example 16, (5-{3-[5-(Trifluoromethoxy)-3,4-dihydro-1H-spiro[chromene-2,4′-piperidin]-1′-yl]isoxazol-5-yl}-2H-tetrazol-2-yl)acetic acid]",1
18,"O=C(O)Cn1nnc(-c2cnc(N3CCC4(C=Cc5ccccc54)CC3)s2)n1 [Example 7, {5-[2-(1′H-Spiro[indene-1,4′-piperidin]-1′-yl)-1,3-thiazol-5-yl]-2H-tetrazol-2-yl}acetic acid]",244
19,"O=C(O)Cn1ccn(-c2cnc(N3CCC4(CCc5c(Cl)cccc5O4)CC3)s2)c1=O [Example 68, {3-[2-(5-Chloro-3,4-dihydro-1′H-spiro[chromene-2,4′-piperidin]-1′-yl)-1,3-thiazol-5-yl]-2-oxo-2,3-dihydro-1H-imidazol-1-yl}acetic acid]",3
20,"O=C(O)Cn1nnc(-c2nnc(N3CCC4(CCc5c(cccc5C(F)(F)F)O4)CC3)s2)n1 [Example 75, (5-{5-[5-(Trifluoromethyl)-3,4-dihydro-1′H-spiro[chromene-2,4′-piperidin]-1′-yl]-1,3,4-thiadiazol-2-yl}-2H-tetrazol-2-yl)acetic acid]",1
21,"O=C(O)Cn1nnc(-c2cnc(N3CCC4(CC3)Cc3cccc(Cl)c3C(=O)O4)s2)n1 [Example 46, {5-[2-(8-Chloro-1-oxo-1,4-dihydro-1′H-spiro[isochromene-3,4′-piperidin]-1′-yl)-1,3-thiazol-5-yl]-2H-tetrazol-2-yl}acetic acid]",21
22,"O=C(O)Cn1nnc(-c2cnc(N3CCC4(CC3)COc3ccccc34)s2)n1 [Example 6, {5-[2-(1′H-Spiro[1-benzofuran-3,4′-piperidin]-1′-yl)-1,3-thiazol-5-yl]-2H-tetrazol-2-yl}acetic acid]",65
23,"O=C(O)Cn1nnc(-c2cnc(N3CCC4(CCc5c(cccc5C(F)(F)F)O4)CC3)s2)n1 [Example 76, (5-{2-[5-(Trifluoromethyl)-3,4-dihydro-1′H-spiro[chromene-2,4′-piperidin]-1′-yl]-1,3-thiazol-5-yl}-2H-tetrazol-2-yl)acetic acid]",1
24,"O=C(O)Cn1nnc(-c2cc(N3CCC4(CCc5c(Cl)cccc5O4)CC3)no2)n1 [Example 2, {5-[3-(5-Chloro-3,4-dihydro-1′H-spiro[chromene-2,4′-piperidin]-1′-yl)isoxazol-5-yl]-2H-tetrazol-2-yl}acetic acid]",11
